Laboratory results published in US9149038B2, “4-amino-6-(heterocyclic)picolinates and 6-amino-2-(heterocyclic)pyrimidine-4-carboxylates and their use as herbicides” (Dow AgroSciences LLC, priority 2013, dated 2015).
Where two headings read alike, the source gives them in different places.

System: Direct Seeded Rice and weed species
Assay: Postemergence herbicidal activity in direct seeded rice, visual rating after 20-22 days and probit GR20/GR50/GR80/GR90 (Table 14)
Assay type: in vivo
Conditions: for pest or weed control at 17.5 g/ha / pest or weed control at 35 g/ha / pest or weed control at 70 g/ha: post-emergence, 504 h, postemergence; for pest or weed control at 17.5 g/ha: 17.5 g ai/ha; for pest or weed control at 35 g/ha: 35 g ai/ha; for pest or weed control at 70 g/ha: 70 g ai/ha
Summary of the method: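 Rice and weeds grown in loam–sand soil (pH about 8.1) in greenhouse to 2nd–3rd true leaf, then sprayed postemergence at 187 L/ha in acetone/DMSO with 1.25% (v/v) Agri-dex crop oil. Injury rated visually 0–100 after 20-22 days versus untreated plants; GR20, GR50, GR80, GR90 obtained by probit analysis across dose rates.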

[1] = BRAPP (broadleaf signalgrass, Brachiaria platyphylla), read-out: Visual Growth Reduction (%) 21 Days After Application BRAPP
[2] = CYPDI (small-flower flatsedge, Cyperus difformis), read-out: Visual Growth Reduction (%) 21 Days After Application CYPDI
[3] = CYPES (yellow nutsedge, Cyperus esculentus), read-out: Visual Growth Reduction (%) 21 Days After Application CYPES
[4] = CYPIR (rice flatsedge, Cyperus iria), read-out: Visual Growth Reduction (%) 21 Days After Application CYPIR
[5] = DIGSA (large crabgrass, Digitaria sanguinalis), read-out: Visual Growth Reduction (%) 21 Days After Application DIGSA
[6] = ECHCG (barnyardgrass, Echinochloa crus-galli), read-out: Visual Growth Reduction (%) 21 Days After Application ECHCG
[7] = ECHCO (junglerice, Echinochloa colonum), read-out: Visual Growth Reduction (%) 21 Days After Application ECHCO
[8] = LEFCH (Chinese sprangletop, Leptochloa chinensis), read-out: Visual Growth Reduction (%) 21 Days After Application LEFCH
[9] = ORYSJ (Oryza sativa, rice crop), read-out: Visual Growth Reduction (%) 21 Days After Application ORYSJ
[10] = ORYSK (Oryza sativa, rice crop), read-out: Visual Growth Reduction (%) 21 Days After Application ORYSK
[11] = SCPJU (Japanese bulrush, Schoenoplectus juncoides Roxb.), read-out: Visual Growth Reduction (%) 21 Days After Application SCPJU
[12] = SEBEX (hemp sesbania, Sesbania exaltata), read-out: Visual Growth Reduction (%) 21 Days After Application SEBEX

With `Nc1cc(-c2cc3c(cc2F)OC(F)(F)O3)nc(C(=O)O)c1Cl` [Compound 42] as the compound, how does the “GR50 BRAPP” value (BRAPP (Brachiaria platyphylla), probit analysis, dose for 50 percent growth reduction) read?
The value was 0.004 g ai/ha.

What about the “GR80 BRAPP” value (BRAPP (Brachiaria platyphylla), probit analysis, dose for 80 percent growth reduction) of the same compound?
Its value is 0.2 g ai/ha.

And the “GR90 BRAPP” value (BRAPP (Brachiaria platyphylla), probit analysis, dose for 90 percent growth reduction)?
Its value is 1 g ai/ha.

What about the “GR50 CYPDI” value (CYPDI (Cyperus difformis), probit analysis, dose for 50 percent growth reduction) of the same compound?
The value was 0.004 g ai/ha.

And the “GR80 CYPDI” value (CYPDI (Cyperus difformis), probit analysis, dose for 80 percent growth reduction)?
Its value is 0.2 g ai/ha.

What about the “GR90 CYPDI” value (CYPDI (Cyperus difformis), probit analysis, dose for 90 percent growth reduction) of the same compound?
The value was 1 g ai/ha.

And the “GR50 CYPES” value (CYPES (Cyperus esculentus), probit analysis, dose for 50 percent growth reduction)?
The value was 0.4 g ai/ha.

What about the “GR80 CYPES” value (CYPES (Cyperus esculentus), probit analysis, dose for 80 percent growth reduction) of the same compound?
Its value is 2 g ai/ha.

What about the “GR90 CYPES” value (CYPES (Cyperus esculentus), probit analysis, dose for 90 percent growth reduction) of the same compound?
Its value is 5 g ai/ha.

What about the “GR50 CYPIR” value (CYPIR (Cyperus iria), probit analysis, dose for 50 percent growth reduction) of the same compound?
The value was 3 g ai/ha.

What about the “GR80 CYPIR” value (CYPIR (Cyperus iria), probit analysis, dose for 80 percent growth reduction) of the same compound?
Its value is 5 g ai/ha.

And the “GR90 CYPIR” value (CYPIR (Cyperus iria), probit analysis, dose for 90 percent growth reduction)?
Its value is 6 g ai/ha.

And the “GR50 DIGSA” value (DIGSA (Digitaria sanguinalis), probit analysis, dose for 50 percent growth reduction)?
Its value is 0.004 g ai/ha.

And the “GR80 DIGSA” value (DIGSA (Digitaria sanguinalis), probit analysis, dose for 80 percent growth reduction)?
Its value is 0.158 g ai/ha.

What about the “GR90 DIGSA” value (DIGSA (Digitaria sanguinalis), probit analysis, dose for 90 percent growth reduction) of the same compound?
The value was 1 g ai/ha.

And the “GR50 ECHCG” value (ECHCG (Echinochloa crus-galli), probit analysis, dose for 50 percent growth reduction)?
The value was 0.0001 g ai/ha.

And the “GR80 ECHCG” value (ECHCG (Echinochloa crus-galli), probit analysis, dose for 80 percent growth reduction)?
Its value is 0.0001 g ai/ha.

And the “GR90 ECHCG” value (ECHCG (Echinochloa crus-galli), probit analysis, dose for 90 percent growth reduction)?
The value was 0.0001 g ai/ha.

What about the “GR50 ECHCO” value (ECHCO (Echinochloa colonum), probit analysis, dose for 50 percent growth reduction) of the same compound?
Its value is 0.00015 g ai/ha.

What about the “GR80 ECHCO” value (ECHCO (Echinochloa colonum), probit analysis, dose for 80 percent growth reduction) of the same compound?
The value was 0.0207 g ai/ha.

What about the “GR90 ECHCO” value (ECHCO (Echinochloa colonum), probit analysis, dose for 90 percent growth reduction) of the same compound?
Its value is 0.268 g ai/ha.

What about the “GR50 LEFCH” value (LEFCH (Leptochloa chinensis), probit analysis, dose for 50 percent growth reduction) of the same compound?
The value was 4 g ai/ha.

And the “GR80 LEFCH” value (LEFCH (Leptochloa chinensis), probit analysis, dose for 80 percent growth reduction)?
The value was 8 g ai/ha.

And the “GR90 LEFCH” value (LEFCH (Leptochloa chinensis), probit analysis, dose for 90 percent growth reduction)?
The value was 13 g ai/ha.

What about the “GR20 ORYSJ” value (ORYSJ (Oryza sativa, rice crop), probit analysis, dose for 20 percent growth reduction) of the same compound?
Its value is 1 g ai/ha.

What about the “GR20 ORYSK” value (ORYSK (Oryza sativa, rice crop), probit analysis, dose for 20 percent growth reduction) of the same compound?
Its value is 1 g ai/ha.

And the “GR50 SCPJU” value (SCPJU (Schoenoplectus juncoides Roxb.), probit analysis, dose for 50 percent growth reduction)?
The value was 0.0001 g ai/ha.

What about the “GR80 SCPJU” value (SCPJU (Schoenoplectus juncoides Roxb.), probit analysis, dose for 80 percent growth reduction) of the same compound?
Its value is 0.0001 g ai/ha.

What about the “GR90 SCPJU” value (SCPJU (Schoenoplectus juncoides Roxb.), probit analysis, dose for 90 percent growth reduction) of the same compound?
Its value is 0.0001 g ai/ha.

What about the “GR50 SEBEX” value (SEBEX (Sesbania exaltata), probit analysis, dose for 50 percent growth reduction) of the same compound?
Its value is 2 g ai/ha.

What about the “GR80 SEBEX” value (SEBEX (Sesbania exaltata), probit analysis, dose for 80 percent growth reduction) of the same compound?
The value was 5 g ai/ha.

What about the “GR90 SEBEX” value (SEBEX (Sesbania exaltata), probit analysis, dose for 90 percent growth reduction) of the same compound?
The value was 9 g ai/ha.

What about the pest or weed control at 17.5 g/ha [1] of the same compound?
The pest or weed control at 17.5 g/ha was 95 to 100%.

And the pest or weed control at 35 g/ha [1]?
The pest or weed control at 35 g/ha was 95 to 100%.

What about the pest or weed control at 70 g/ha [1] of the same compound?
The pest or weed control at 70 g/ha was 95 to 100%.

What about the pest or weed control at 17.5 g/ha [2] of the same compound?
Its pest or weed control at 17.5 g/ha is 95 to 100%.

And the pest or weed control at 35 g/ha [2]?
Its pest or weed control at 35 g/ha is 95 to 100%.

What about the pest or weed control at 70 g/ha [2] of the same compound?
Its pest or weed control at 70 g/ha is 95 to 100%.

What about the pest or weed control at 17.5 g/ha [3] of the same compound?
The pest or weed control at 17.5 g/ha was 95 to 100%.

What about the pest or weed control at 35 g/ha [3] of the same compound?
Its pest or weed control at 35 g/ha is 95 to 100%.

And the pest or weed control at 70 g/ha [3]?
The pest or weed control at 70 g/ha was 95 to 100%.

What about the pest or weed control at 17.5 g/ha [4] of the same compound?
The pest or weed control at 17.5 g/ha was 95 to 100%.

And the pest or weed control at 35 g/ha [4]?
The pest or weed control at 35 g/ha was 95 to 100%.

And the pest or weed control at 70 g/ha [4]?
Its pest or weed control at 70 g/ha is 95 to 100%.

What about the pest or weed control at 17.5 g/ha [5] of the same compound?
Its pest or weed control at 17.5 g/ha is 95 to 100%.

And the pest or weed control at 35 g/ha [5]?
Its pest or weed control at 35 g/ha is 95 to 100%.

What about the pest or weed control at 70 g/ha [5] of the same compound?
Its pest or weed control at 70 g/ha is 95 to 100%.

What about the pest or weed control at 17.5 g/ha [6] of the same compound?
The pest or weed control at 17.5 g/ha was 95 to 100%.

What about the pest or weed control at 35 g/ha [6] of the same compound?
The pest or weed control at 35 g/ha was 95 to 100%.

And the pest or weed control at 70 g/ha [6]?
The pest or weed control at 70 g/ha was 95 to 100%.

And the pest or weed control at 17.5 g/ha [7]?
Its pest or weed control at 17.5 g/ha is 95 to 100%.

And the pest or weed control at 35 g/ha [7]?
Its pest or weed control at 35 g/ha is 95 to 100%.

And the pest or weed control at 70 g/ha [7]?
The pest or weed control at 70 g/ha was 95 to 100%.

What about the pest or weed control at 17.5 g/ha [8] of the same compound?
The pest or weed control at 17.5 g/ha was 95 to 100%.

And the pest or weed control at 35 g/ha [8]?
The pest or weed control at 35 g/ha was 95 to 100%.

What about the pest or weed control at 70 g/ha [8] of the same compound?
Its pest or weed control at 70 g/ha is 95 to 100%.

And the pest or weed control at 17.5 g/ha [9]?
The pest or weed control at 17.5 g/ha was 85 to 94%.

What about the pest or weed control at 35 g/ha [9] of the same compound?
Its pest or weed control at 35 g/ha is 95 to 100%.

What about the pest or weed control at 70 g/ha [9] of the same compound?
Its pest or weed control at 70 g/ha is 95 to 100%.

And the pest or weed control at 17.5 g/ha [10]?
Its pest or weed control at 17.5 g/ha is 60 to 74%.

What about the pest or weed control at 35 g/ha [10] of the same compound?
The pest or weed control at 35 g/ha was 75 to 84%.

And the pest or weed control at 70 g/ha [10]?
The pest or weed control at 70 g/ha was 75 to 84%.

And the pest or weed control at 17.5 g/ha [11]?
The pest or weed control at 17.5 g/ha was 95 to 100%.

And the pest or weed control at 35 g/ha [11]?
Its pest or weed control at 35 g/ha is 95 to 100%.

And the pest or weed control at 70 g/ha [11]?
Its pest or weed control at 70 g/ha is 95 to 100%.

What about the pest or weed control at 17.5 g/ha [12] of the same compound?
The pest or weed control at 17.5 g/ha was 95 to 100%.

And the pest or weed control at 35 g/ha [12]?
Its pest or weed control at 35 g/ha is 95 to 100%.

And the pest or weed control at 70 g/ha [12]?
The pest or weed control at 70 g/ha was 95 to 100%.
